For data set [1], the target named is T1, COX-2 (Homo sapiens, UniProt P35354).
T1 construct: Fresh blood was collected in tubes containing sodium heparin by vein puncture from healthy male volunteers; endogenous in cells; host or cells: human whole blood from healthy male volunteers, aspirin-pretreated and LPS-stimulated
T1 sequence (P35354 18-604): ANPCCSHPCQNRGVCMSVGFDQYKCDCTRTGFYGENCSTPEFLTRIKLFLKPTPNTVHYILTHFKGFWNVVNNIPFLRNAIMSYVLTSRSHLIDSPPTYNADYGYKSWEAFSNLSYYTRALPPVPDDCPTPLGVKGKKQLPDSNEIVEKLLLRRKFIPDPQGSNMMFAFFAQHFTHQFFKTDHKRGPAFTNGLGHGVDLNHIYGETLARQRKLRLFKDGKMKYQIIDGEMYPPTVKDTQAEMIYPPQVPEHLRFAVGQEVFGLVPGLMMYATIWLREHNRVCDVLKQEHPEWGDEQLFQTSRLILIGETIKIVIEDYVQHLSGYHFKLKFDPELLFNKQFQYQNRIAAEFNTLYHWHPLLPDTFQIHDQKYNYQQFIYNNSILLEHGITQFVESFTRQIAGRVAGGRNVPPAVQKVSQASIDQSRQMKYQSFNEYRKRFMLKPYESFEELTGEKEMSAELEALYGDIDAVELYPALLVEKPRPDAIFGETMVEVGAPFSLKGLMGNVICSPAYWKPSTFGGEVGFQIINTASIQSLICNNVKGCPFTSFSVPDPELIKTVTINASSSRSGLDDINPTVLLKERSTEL
Nature of the data set: Human whole blood assay (LPS-induced PGE2, COX-2 inhibition). In kind it is cell-based. As to conditions: LPS stimulated. The protocol: Human whole blood provides a protein and cell rich milieu appropriate for the study of biochemical efficacy of anti-inflammatory compounds such as selective COX-2 inhibitors. […] This is correlating with the observation that COX-2 inhibitors have no effect on prostaglandin E2 (PGE2) production in normal blood. These inhibitors were active only after incubation of human blood with lipopolysaccharide (LPS), which induces COX-2 production in the blood.
Fresh blood was collected in tubes containing sodium heparin by vein puncture from healthy male volunteers. The subjects should have no apparent inflammatory conditions and not taken NSAIDs for at least 7 days prior to blood collection. Blood was preincubated with aspirin in vitro (12 μg/ml, at time zero) to inactivate COX-1 for 6 hours. Then test compounds (at various concentrations) or vehicle were added to blood. After that blood was stimulated with LPS B:4 (10 μg/ml) and incubated for another 18 h at 37° C. water bath. After which the blood was centrifuged, plasma was separated and stored at −80° C. (J. Pharmacol. Exp. Ther, 271, 1705, 1994; Proc. Natl. Acad. Sci. USA, 96, 7563, 1999). The plasma was assayed for PGE2 using Cayman ELISA kit as per the procedure outlined by the manufacturer (Cayman Chemicals, Ann Arbor, USA).

The subject of data set [2] is IL-6. Nature of the data set: In vitro measurement of IL-6 in LPS-stimulated human PBMC. In kind it is cell-based. As to conditions: LPS 1 μg/ml, 18 h. As for the experimental part:
This assay determines the effect of test compounds on the production of IL-6 in human PBMC (Physiol. Res. 52: 593-598, 2003). Compounds were tested for their ability to inhibit the activity of IL-6 in human PBMC. PBMC were isolated from blood using BD Vacutainer CPT™ Cell preparation tube (BD Bio Science) and suspended in RPMI medium. The test compounds were pre-incubated with PBMC (0.5 million/incubation well) for 15 minutes at 37° C. and then stimulated with Lipopolysaccharide (Escherichia coli: B4; 1 μg/ml) for 18 h at 37° C. in 5% CO2. The levels of IL-6 in cell culture medium were estimated using enzyme linked Immunosorbent assay performed in a 96 well format as per the procedure of the manufacturer (Cayman Chemical, Ann Arbor, USA).

The test system of data set [3] is TNF-α. Nature of the data set: In vitro measurement of TNF-α in LPS-stimulated human PBMC. In kind it is cell-based. As to conditions: LPS 1 μg/ml, 18 h. The protocol: This assay determines the effect of test compounds on the production of TNF α in human Peripheral Blood Mononuclear Cells (PBMC). Compounds were tested for their ability to inhibit the activity of TNF α in human PBMC. PBMC were isolated from blood (from healthy volunteers) using BD Vacutainer CPT™ (Cell preparation tube, BD Bio Science) and suspended in RPMI medium (Physiol. Res. 52: 593-598, 2003). The test compounds were pre-incubated with PBMC (0.5 million/incubation well) for 15 minutes at 37° C. and then stimulated with Lipopolysaccharide (Escherichia coli: B4; 1 μg/ml) for 18 h at 37° C. in 5% CO2. The levels of TNFα in cell culture medium were estimated using enzyme linked Immunosorbent assay performed in a 96 well format as per the procedure of the manufacturer (Cayman Chemical, Ann Arbor, USA).

In data set [4] the test system is TNF-α. Nature of the data set: LPS induced sepsis for measurement of TNF-α inhibition in mice. It is filed as in vivo. As to conditions: oral, serum 90 min after LPS. As for the experimental part:
The LPS induced sepsis model in mice was performed as described by Les sekut et al (J Lab Clin Med 1994; 124:813-20). Female Swiss albino mice were selected and the body weights were equivalent within each group. The mice were fasted for 20 hours with free access to water. The mice were dosed orally with the test compound suspended in vehicle containing 0.5% Tween 80 in 0.25% Carboxy-methylcellulose sodium salt. The control mice were administered the vehicle alone. After 30 min of oral dosing, mice were injected with 500 μg of Lipopolysaccharide (Escherichia coli, LPS: B4 from Sigma) in phosphate buffer saline solution into the intraperitoneal cavity of the mice. After 90 min of LPS administration mice were bled via retro-orbital sinus puncture. Blood samples were stored overnight at 4° C. Serum samples were collected by centrifuging the samples at 400 rpm for 15 min at 4° C. Immediately the serum samples were analysed for TNFα levels using commercially available mouse TNF-α ELISA kit (Amersham Biosciences) and assay was performed by the manufacturer instruction.

In data set [5] the target is T2, purified recombinant COX-2 (Homo sapiens, UniProt P35354).
T2 sequence (P35354 18-604): T1 sequence (P35354 18-604)
Nature of the data set: COX-2 enzyme based assay. In kind it is biochemical. As for the experimental part: (§1) COX-1 and COX-2 enzyme based assays were carried out to check the inhibitory potential of test compounds on the production of prostaglandin by purified recombinant COX-1/COX-2 enzyme (Proc. Nat. Acad. Sci. USA, 88, 2692-2696, 1991; J. Clin. Immunoassay 15, 116-120, 1992) In this assay, the potential of test compound to inhibit the production of prostaglandin either by COX-1 or COX-2 from arachidonic acid (substrate) was measured. This was an enzyme based in-vitro assay to evaluate selective COX inhibition with good reproducibility.
(§2) Arachidonic acid was converted to PGH2 (Intermediate product) by COX1/COX-2 in presence or absence of the test compound. The reaction was carried out at 37° C. and after 2 minutes it was stopped by adding 1M HCl. Intermediate product PGH2 was converted to a stable prostanoid product PGF2α by SnCl2 reduction. The amount of PGF2α produced in the reaction was inversely proportional to the COX inhibitory potential of the test compound. The prostanoid product was quantified via enzyme immunoassay (EIA) using a broadly specific antibody that binds to all the major forms of prostaglandin, using Cayman ELISA kit as per the procedure outlined by the manufacturer (Cayman Chemicals, Ann Arbor, USA).

Data set [6] deals with T3, purified recombinant COX-1 (Ovis aries, UniProt P05979).
T3 sequence (P05979 25-600): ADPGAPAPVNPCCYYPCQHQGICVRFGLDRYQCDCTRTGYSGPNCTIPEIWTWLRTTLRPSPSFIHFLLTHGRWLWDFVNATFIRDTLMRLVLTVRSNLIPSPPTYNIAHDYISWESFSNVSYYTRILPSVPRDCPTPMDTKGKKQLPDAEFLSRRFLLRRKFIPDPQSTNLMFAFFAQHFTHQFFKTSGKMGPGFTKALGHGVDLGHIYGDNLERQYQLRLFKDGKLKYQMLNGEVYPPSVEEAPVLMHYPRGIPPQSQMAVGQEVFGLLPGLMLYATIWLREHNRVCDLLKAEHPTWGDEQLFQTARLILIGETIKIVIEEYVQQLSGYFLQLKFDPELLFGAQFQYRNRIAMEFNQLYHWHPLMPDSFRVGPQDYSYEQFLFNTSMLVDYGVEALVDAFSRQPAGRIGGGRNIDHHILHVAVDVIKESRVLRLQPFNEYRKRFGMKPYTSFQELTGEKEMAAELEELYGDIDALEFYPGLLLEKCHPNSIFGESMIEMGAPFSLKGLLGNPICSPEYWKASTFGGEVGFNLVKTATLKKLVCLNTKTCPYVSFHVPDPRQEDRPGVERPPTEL
Nature of the data set: COX-1 enzyme based assay. It is filed as biochemical. The protocol:
as §1, §2

Some results are limits rather than exact numbers.

The compound `CSc1ccc(-c2nc3[nH]nc(N)c3c(=O)n2-c2ccc(C)cc2)cc1` [Example 1, 3-amino-5-(4-methylphenyl)-6-[4-(methylthio)phenyl]-1,5-dihydro-4H-pyrazolo[3,4-d]pyrimidin-4-one] had a melting point above 285 °C. Also, the inhibition at 0.25 µM in data set [1] (0.25 μM) turned out to be 20.3%. Besides, in data set [1] (10 μM), at 10 µM the inhibition was 41.6%.
Consider `CSc1ccc(-c2nc3[nH]nc(N)c3c(=O)n2-c2ccc(Br)cc2)cc1` [Example 19, 3-Amino-5-(4-bromophenyl)-6-[(4-methylthio)phenyl]-1,5-dihydro-4H-pyrazolo[3,4-d]pyrimidin-4-one], for which the inhibition at 1 µM in data set [2] is 15.9%. The compound further showed an inhibition at 10 µM in data set [3] of 64.8%.
Turning to `CCOc1ccc(-n2c(-c3ccc(SC)cc3)nc3c(c(N)nn3C)c2=O)cc1` [Example 21, 3-Amino-5-(4-ethoxyphenyl)-1-methyl-6-[4-(methylthio)phenyl]-1,5-dihydro-4H-pyrazolo[3,4-d]pyrimidin-4-one], the inhibition at 10 µM in data set [3] is 75.1%. The “TNF-α Inhibition (%)” value in data set [4] (at 50 mg/kg) is listed as 75.15 (at 50 mg/kg) %.
With `CSc1ccc(-c2nc3c(c(N)nn3C)c(=O)n2-c2ccc(C(C)C)cc2)cc1` [Example 22, 3-Amino-5-(4-isopropylphenyl)-1-methyl-6-[4-(methylthio)phenyl]-1,5-dihydro-4H-pyrazolo[3,4-d]pyrimidin-4-one], the inhibition at 1 µM in data set [2] turned out to be 12%. Testing at 10 µM in data set [3] gave an inhibition of 54%.
On to `CSc1ccc(-c2nc3c(c(N)nn3C)c(=O)n2-c2ccc(C)cc2C)cc1` [Example 23, 3-Amino-5-(2,4-dimethylphenyl)-1-methyl-6-[4-(methylthio)phenyl]-1,5-dihydro-4H-pyrazolo[3,4-d]pyrimidin-4-one], for which the “COX-2 Inhibition (%)” value in data set [5] (Conc. 1 μM) is “Not Active”. The inhibition at 1 µM in data set [6] (Conc. 1 μM) worked out at 51.6%. This compound registered an inhibition at 10 µM in data set [3] of 86.3%. For the same compound, in data set [4] (at 5 mg/kg), the “TNF-α Inhibition (%)” value is 92.02 (at 5 mg/kg) %.
For the compound `CSc1ccc(-c2nc3c(c(N)nn3C)c(=O)n2-c2ccc(Cl)cc2)cc1` [Example 24, 3-Amino-5-(4-chlorophenyl)-1-methyl-6-[4-(methylthio)phenyl]-1,5-dihydro-4H-pyrazolo[3,4-d]pyrimidin-4-one], in data set [3], the inhibition at 10 µM stood at 87.9%. In addition, the “TNF-α Inhibition (%)” value in data set [4] (at 50 mg/kg) was 91.99 (at 50 mg/kg) %.
In data set [2], `CSc1ccc(-c2nc3[nH]nc(NC(C)=O)c3c(=O)n2-c2ccc(C)c(C)c2)cc1` [Example 36, N-[5-(3,4-Dimethylphenyl)-4-oxo-6-[(4-methylthio)phenyl]-4,5-dihydro-1H-pyrazolo[3,4-d]pyrimidin-3-yl]acetamide] yielded an inhibition at 1 µM of 12.7%. In addition, the inhibition at 10 µM in data set [3] amounted to 29.9%.
Take `CSc1ccc(-c2nc3c(c(NC(=O)C(F)(F)F)nn3C)c(=O)n2-c2ccc(C)cc2C)cc1` [Example 40, 2,2,2-trifluoro-N-{5-(2,4-dimethylphenyl)-1-methyl-6-[4-(methylthio)phenyl]-4-oxo-4,5-dihydro-1H-pyrazolo[3,4-d]pyrimidin-3-yl}acetamide]: the values for the inhibition at 10 µM in data set [5] (Conc. 10 μM), in data set [6] (Conc. 10 μM) and in data set [3] were 15.5%, 3.11% and 78%, respectively.

In general, inhibition refers to the change of the read-out against control, counted positive when it falls. The term melting point denotes the temperature, or range, at which the solid turns liquid.
